Columns and labels:
Format in all cases: functional
HOP-62 = test: Cytotoxicity against human HOP62 cells assessed as cellular growth at 10 uM by SRB assay
KM12 = test: Cytotoxicity against human KM12 cells assessed as cellular growth at 10 uM by SRB assay
NCI-H322M = test: Cytotoxicity against human NCI-H322M cells assessed as cellular growth at 10 uM by SRB assay
HCC 2998 = test: Cytotoxicity against human HCC2998 cells assessed as cellular growth at 10 uM by SRB assay
RXF 393 = test: Cytotoxicity against human RXF393 cells assessed as cellular growth at 10 uM by SRB assay
PC-3 = test: Cytotoxicity against human PC3 cells assessed as cellular growth at 10 uM by SRB assay
Hs-578T = test: Cytotoxicity against human Hs578T cells assessed as cellular growth at 10 uM by SRB assay
MDA-MB-468 = test: Cytotoxicity against human MDA-MB-468 cells assessed as cellular growth at 10 uM by SRB assay
786-0 = test: Cytotoxicity against human 786-0 cells assessed as cellular growth at 10 uM by SRB assay
SNB-19 = test: Cytotoxicity against human SNB19 cells assessed as cellular growth at 10 uM by SRB assay
NCI-H522 = test: Cytotoxicity against human NCI-H522 cells assessed as cellular growth at 10 uM by SRB assay
MOLT-4 = test: Cytotoxicity against human MOLT4 cells assessed as cellular growth at 10 uM by SRB assay
[1] = Cytotoxicity against human NCI-ADR-RES cells assessed as cellular growth at 10 uM by SRB assay
NCI-H23 = test: Cytotoxicity against human NCI-H23 cells assessed as cellular growth at 10 uM by SRB assay
CAKI-1 = test: Cytotoxicity against human Caki1 cells assessed as cellular growth at 10 uM by SRB assay
HCT-15 = test: Cytotoxicity against human HCT15 cells assessed as cellular growth at 10 uM by SRB assay
UACC-62 = test: Cytotoxicity against human UACC62 cells assessed as cellular growth at 10 uM by SRB assay
HT-29 = test: Cytotoxicity against human HT-29 cells assessed as cellular growth at 10 uM by SRB assay
SF-268 = test: Cytotoxicity against human SF268 cells assessed as cellular growth at 10 uM by SRB assay
TK-10 = test: Cytotoxicity against human TK10 cells assessed as cellular growth at 10 uM by SRB assay

| Structure (SMILES) | Activity (HOP-62) | Activity (KM12) | Activity (NCI-H322M) | Activity (HCC 2998) | Activity (RXF 393) | Activity (PC-3) | Activity (Hs-578T) | Activity (MDA-MB-468) | Activity (786-0) | Activity (SNB-19) | Activity (NCI-H522) | Activity (MOLT-4) | Activity [1] | Activity (NCI-H23) | Activity (CAKI-1) | Activity (HCT-15) | Activity (UACC-62) | Activity (HT-29) | Activity (SF-268) | Activity (TK-10) |
| --- | --- | --- | --- | --- | --- | --- | --- | --- | --- | --- | --- | --- | --- | --- | --- | --- | --- | --- | --- | --- |
| COc1ccc2[nH]c(C(=O)NCc3ccccc3)cc2c1 | 104.71% | 111.34% | 90.03% | 104.4% | 101.97% | 102.32% | 112.57% | 99.1% | 103.19% | 101.29% | 90.46% | 83.12% | 102.25% | 89.11% | 87.15% | 94.58% | 91.05% | 102.88% | 114.89% | 120.94% |
| O=C(Nc1nc2ccccc2s1)c1ccc(F)cc1 | 106.04% | 52.84% | 92.49% | 69.88% | 106.77% | 96.56% | 140.08% | 94.15% | 107.84% | 126.08% | 92.24% | 100.31% | 95.74% | 89.91% | 62.93% | 85.53% | 89.52% | 108.47% | 114.42% | 125.36% |
| CC1(C)CCc2cc(-c3ccn(S(=O)(=O)c4ccccc4Cl)n3)ccc2O1 | 96.86% | 62.1% | 126.42% | 81.67% | 93.11% | 70.67% | 102.19% | 63.67% | 71.72% | 88.07% | 77.85% | 64.66% | 78.37% | 76.98% | 101.05% | 46.19% | 81.14% | 33.37% | 96.38% | 74.57% |
| O=c1/c(=C/c2ccccc2Cl)sc2nc(-c3ccccc3)nn12 | 103.3% | 89.57% | 96.56% | 104.88% | 99.76% | 72.09% | 89.46% | 96.99% | 101.12% | 90.58% | 85.92% | 69.85% | 90.47% | 86.7% | 98.22% | 79.8% | 83.77% | 112.54% | 91.24% | 123.92% |
| O=c1/c(=C/c2ccc(Cl)cc2Cl)sc2nc(-c3ccccc3)nn12 | 120.5% | 101.32% | 127.05% | 117.6% | 121.72% | 106.44% | 98.17% | 112.09% | 103.31% | 102.51% | 98.76% | 88.5% | 112.24% | 101.62% | 116.76% | 100.58% | 89.1% | 115.55% | 107.16% | 106% |
| CC1(C)CCc2cc(-c3ccn(S(=O)(=O)c4ccc(Cl)cc4)n3)ccc2O1 | 92.92% | 77% | 94.19% | 94.3% | 89.02% | 56.8% | 99.49% | 48.91% | 71.44% | 100.09% | 66.19% | 65.38% | 69.31% | 65.48% | 64.29% | 91.33% | 75.03% | 70.86% | 90.72% | 76.99% |
| CC1(C)CCc2cc(-c3ccn(S(=O)(=O)c4cccc(C(F)(F)F)c4)n3)ccc2O1 | 102.63% | 98.53% | 106.64% | 104.44% | 97.2% | 88.93% | 107.85% | 67.07% | 85.72% | 103.83% | 87.1% | 66.45% | 88.98% | 81.53% | 105.83% | 89.34% | 84.21% | 71.22% | 102.56% | 82.31% |
| Cc1cccc(-c2nc(-c3cccs3)no2)c1 | 79.48% | 104.19% | 95.9% | 80.51% | 126.03% | 80.3% | 81.63% | 40.25% | 93.47% | 106.75% | 90.03% | 96.35% | 95.15% | 89.36% | 77.92% | 83.75% | 86.85% | 98.29% | 112.75% | 68.05% |
| Clc1ccc(-c2nc(-c3cccs3)no2)cc1 | 97.84% | 92.39% | 113.5% | 32.91% | 112.7% | 103.14% | 136.36% | 3.37% | 99.58% | 103.81% | 92.03% | 86.35% | 106.94% | 92.82% | 102.58% | 47.45% | 89.8% | 106.39% | 105.52% | 109.61% |
| c1ccc(-c2nc(-c3cccs3)no2)cc1 | 98.37% | 99.88% | 122.94% | 117.01% | 122.84% | 96.07% | 100.69% | 83.74% | 107.03% | 108.69% | 96.9% | 92.81% | 116.69% | 93.94% | 100.18% | 94.44% | 93.02% | 108.03% | 105.23% | 97.25% |
| COc1ccc(Cl)cc1C(=O)Nc1nc2ccc(Cl)cc2s1 | 89.42% | 94.77% | 85.62% | 102.29% | 95.02% | 84.45% | 102.47% | 76.66% | 75.8% | 102.79% | 99.37% | 95.65% | 101.67% | 90.46% | 84.36% | 86.52% | 91.53% | 109.45% | 83.22% | 126.89% |
| O=C(Nc1nc2ccc(Cl)cc2s1)c1ccc(Cl)cc1 | 103.16% | 102.62% | 111.02% | 106.96% | 111.55% | 89.01% | 98.57% | 114.39% | 101.53% | 125.32% | 99.64% | 95.76% | 100.28% | 91.71% | 81.52% | 98.99% | 101.97% | 107.3% | 112.46% | 131.87% |
| O=S(=O)(Oc1ccc(-c2cnc3ccccc3n2)cc1)c1ccc2ccccc2c1 | 104.1% | 101.08% | 137.19% | 107.48% | 110% | 87.31% | 105.04% | 85.1% | 96.4% | 99.88% | 86.38% | 89.91% | 104.07% | 100.37% | 105.66% | 115.04% | 82.67% | 82.27% | 104.06% | 94.33% |
| O=C(Nc1ccc2oc(=O)ccc2c1)c1ccc(-c2ccc(Cl)c(Cl)c2)o1 | 109.12% | 73.78% | 91.94% | 100.84% | 98.99% | 73.29% | 145.42% | 97.57% | 88.1% | 101.4% | 70.34% | 73.02% | 78.15% | 97.86% | 87.9% | 72.06% | 75.33% | 92.94% | 85.02% | 90.37% |
| COc1ccc(S(=O)(=O)n2ccc(-c3ccc4c(c3)CCC(C)(C)O4)n2)cc1 | 112.43% | 81.91% | 101% | 88.92% | 110.14% | 78.05% | 97.76% | 36.58% | 67.61% | 87.12% | 55.57% | 65.89% | 57.3% | 59.58% | 63.3% | 97.58% | 50.48% | 84.48% | 94.69% | 68.22% |
| O=S(=O)(Oc1ccc(-c2cnc3ccccc3n2)cc1)c1ccccc1 | 106.15% | 111.44% | 107.81% | 99.83% | 102.24% | 89.87% | 145.79% | 84.46% | 92.9% | 102.07% | 78.75% | 75.6% | 96.02% | 96.29% | 100.14% | 98.25% | 78.48% | 78.71% | 98.77% | 82.7% |

Source: ChEMBL document CHEMBL2202954, “The effect of PLC-γ2 inhibitors on the growth of human tumour cells” (2012)
